Results published in ChEMBL document CHEMBL1122687, “Sulfur analogues of psychotomimetic agents. 3. Ethyl homologues of mescaline and their monothio analogues” (1984).

Species on record: Homo sapiens
Assay: Psychotomimetic potency of compound relative to that of mescaline(Human potency of mescaline = 1 MU)
Assay type: functional
COc1cc(CCN)cc(OC)c1OC [MESCALINE] was tested, and the Relative activity was 1. For COc1cc(CCN)cc(SC)c1OC, the Relative activity was 6.

Species on record: Homo sapiens
Assay: Psychotomimetic potency of compound relative to that of mescaline (Human potency of mescaline = 1 MU)
Assay type: functional
In the case of CCOc1cc(CCN)cc(OC)c1OCC, the Relative activity is reported as 1.5. With CCSc1cc(CCN)cc(OC)c1OC the Relative activity was 6. CCCCSc1c(OC)cc(CCN)cc1OC showed a Relative activity of 3. In the case of CCOc1cc(CCN)cc(SC)c1OC, the Relative activity is reported as less than 1. CCCSc1c(OC)cc(CCN)cc1OC gave a Relative activity of 16. CCOc1cc(CCN)cc(SC)c1OCC showed a Relative activity of 2. For CCOc1cc(CCN)cc(SCC)c1OC, the Relative activity was less than 1. CCOc1cc(CCN)cc(SCC)c1OCC gave a Relative activity of less than 1. Compound CCOc1cc(CCN)cc(OCC)c1OC has a Relative activity of less than 1. For CCSc1c(OC)cc(CCN)cc1OC, the Relative activity was 20. CCOc1cc(CCN)cc(OCC)c1SC was tested, and the Relative activity was less than 1. CCOc1cc(CCN)cc(OC)c1SCC showed a Relative activity of 4. COc1cc(CCN)cc(OC)c1SC gave a Relative activity of 12. CCOc1cc(CCN)cc(OCC)c1SCC showed a Relative activity of less than 1. CCOc1c(OC)cc(CCN)cc1SC was tested, and the Relative activity was 6. CCCOc1c(OC)cc(CCN)cc1OC showed a Relative activity of 10. In the case of CCCOc1cc(CCN)cc(OC)c1OC, the Relative activity is reported as less than 1. Compound CCOc1cc(CCN)cc(OC)c1SC has a Relative activity of 4. CCOc1cc(CCN)cc(OC)c1OC showed a Relative activity of 1. Compound CCOc1c(OC)cc(CCN)cc1SCC has a Relative activity of 2. For CCOc1cc(CCN)cc(OCC)c1OCC, the Relative activity was less than 1. CCOc1c(OC)cc(CCN)cc1OC showed a Relative activity of 6. Compound CCCCOc1c(OC)cc(CCN)cc1OC has a Relative activity of 2.
